# PubChem BioAssay AID330 (DTP/NCI, 2004)
# Several values for one entry are separate records, joined by “and”; a condition that tells them apart may be missing. Equal values may be shown once. Inconclusive results and toxic doses are left out.
# Tested on: P388 leukemia ip, CD2F1 mice, survival T/C
# Experiment: NCI In Vivo Anticancer Drug Screen. Data for tumor model P388 Leukemia (intraperitoneal) in CD2F1 (CDF1) mice
# Conditions: endpoint: median survival time, higher = longer survival
# Outline: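 Mice carrying the transplanted tumor received test compound or vehicle. Survival was recorded in each group, and the value is the treated-group measurement divided by that of the vehicle-treated control group.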
# [1] = dose: 60.0 mg/kg/injection, schedule: Q01DX005 (ip), vehicle: Klucel (hydroxypropylcellulose) (HPC)
# [2] = dose: 120.0 mg/kg/injection, schedule: Q01DX005 (ip), vehicle: Klucel (hydroxypropylcellulose) (HPC)
# [3] = dose: 240.0 mg/kg/injection, schedule: Q01DX005 (ip), vehicle: Klucel (hydroxypropylcellulose) (HPC)
# [4] = dose: 50.0 mg/kg/injection, schedule: Q01DX009 (ip), vehicle: Klucel (hydroxypropylcellulose) (HPC)
# [5] = dose: 100.0 mg/kg/injection, schedule: Q01DX009 (ip), vehicle: Klucel (hydroxypropylcellulose) (HPC)
# [6] = dose: 12.5 mg/kg/injection, schedule: Q01DX009 (ip), vehicle: saline with Tween-80
# [7] = dose: 25.0 mg/kg/injection, schedule: Q01DX009 (ip), vehicle: saline with Tween-80
# [8] = dose: 200.0 mg/kg/injection, schedule: Q01DX009 (ip), vehicle: Klucel (hydroxypropylcellulose) (HPC)
# [9] = dose: 50.0 mg/kg/injection, schedule: Q01DX009 (ip), vehicle: saline with Tween-80
# [10] = dose: 100.0 mg/kg/injection, schedule: Q01DX009 (ip), vehicle: saline with Tween-80
# [11] = dose: 60.0 mg/kg/injection, schedule: Q01DX005 (ip), vehicle: saline with Tween-80
# [12] = dose: 120.0 mg/kg/injection, schedule: Q01DX005 (ip), vehicle: saline with Tween-80
# [13] = dose: 240.0 mg/kg/injection, schedule: Q01DX005 (ip), vehicle: saline with Tween-80
structure (smiles),measurement,setting,value
NC(=O)c1cnc2nc1NCCCCCCC2,T/C,"dose: 100.0 mg/kg/injection, schedule: Q04DX002 (ip), vehicle: Klucel (hydroxypropylcellulose) (HPC)",100 % of control
same,T/C,"dose: 200.0 mg/kg/injection, schedule: Q04DX002 (ip), vehicle: Klucel (hydroxypropylcellulose) (HPC)",98 % of control
same,T/C,"dose: 400.0 mg/kg/injection, schedule: Q04DX002 (ip), vehicle: Klucel (hydroxypropylcellulose) (HPC)",90 % of control
NCc1ccccc1Br,T/C,"dose: 50.0 mg/kg/injection, schedule: Q01DX005 (ip), vehicle: distilled water + alcohol",101 % of control
same,T/C,"dose: 100.0 mg/kg/injection, schedule: Q01DX005 (ip), vehicle: distilled water + alcohol",100 % of control
same,T/C,"dose: 200.0 mg/kg/injection, schedule: Q01DX005 (ip), vehicle: distilled water + alcohol",103 % of control
COc1cc(Br)c(C2SCC(=O)N2c2nncs2)cc1OC (configuration not stated),T/C,[1],121 % of control
same,T/C,[2],106 % of control
same,T/C,[3],100 % of control
Cc1ccc(C)c2c1C(=O)c1c(C)ccc(C)c1C2=O,T/C,"dose: 1.5 mg/kg/injection, schedule: Q01DX005 (ip), vehicle: Klucel (hydroxypropylcellulose) (HPC)",99 % of control
same,T/C,"dose: 3.0 mg/kg/injection, schedule: Q01DX005 (ip), vehicle: Klucel (hydroxypropylcellulose) (HPC)",94 % of control
same,T/C,"dose: 6.0 mg/kg/injection, schedule: Q01DX005 (ip), vehicle: Klucel (hydroxypropylcellulose) (HPC)",89 % of control
same,T/C,"dose: 50.0 mg/kg/injection, schedule: Q01DX005 (ip), vehicle: Klucel (hydroxypropylcellulose) (HPC)",90 % of control
same,T/C,"dose: 100.0 mg/kg/injection, schedule: Q01DX005 (ip), vehicle: Klucel (hydroxypropylcellulose) (HPC)",87 % of control
same,T/C,"dose: 200.0 mg/kg/injection, schedule: Q01DX005 (ip), vehicle: Klucel (hydroxypropylcellulose) (HPC)",86 % of control
Clc1cccc(Cl)c1NC1=NCCS1,T/C,[4],92 % of control
same,T/C,[5],101 % of control
CC1(O)Oc2c(cc(C(C)(C)C)cc2C(C)(C)C)C1=O (configuration not stated),T/C,"dose: 6.25 mg/kg/injection, schedule: Q01DX009 (ip), vehicle: saline with Tween-80",99 % of control
same,T/C,[6],102 % of control
same,T/C,[7],105 % of control
CC(NC(=O)C(Cc1ccccc1)NC(=O)c1ccc[n+](Cc2ccccc2)c1)C(N)=O (configuration not stated),T/C,"dose: 60.0 mg/kg/injection, schedule: Q01DX005 (ip), vehicle: saline",97 % of control
same,T/C,"dose: 120.0 mg/kg/injection, schedule: Q01DX005 (ip), vehicle: saline",93 % of control
Cc1csc2nc(-c3cccs3)nn12,T/C,"dose: 30.0 mg/kg/injection, schedule: Q01DX005 (ip), vehicle: Klucel (hydroxypropylcellulose) (HPC)",103 % of control
same,T/C,[1],98 % of control
same,T/C,[2],103 % of control
same,T/C,[3],105 % of control
C=CCSC(=S)Nc1nc2ccc([N+](=O)[O-])cc2s1,T/C,"dose: 6.25 mg/kg/injection, schedule: Q01DX009 (ip), vehicle: Klucel (hydroxypropylcellulose) (HPC)",106 % of control
same,T/C,"dose: 12.5 mg/kg/injection, schedule: Q01DX009 (ip), vehicle: Klucel (hydroxypropylcellulose) (HPC)",109 % of control
same,T/C,"dose: 25.0 mg/kg/injection, schedule: Q01DX009 (ip), vehicle: Klucel (hydroxypropylcellulose) (HPC)",103 % of control
CC1=NNC(=O)/C1=C/c1ccccc1Cl,T/C,[4],104 % of control
same,T/C,[5],105 % of control
same,T/C,[8],112 % of control
same,T/C,"dose: 400.0 mg/kg/injection, schedule: Q01DX009 (ip), vehicle: Klucel (hydroxypropylcellulose) (HPC)",113 % of control
CCCC[C@H]1C(=O)O[C@H](C)[C@H](NC(=O)c2cccc(NC=O)c2O)C(=O)O[C@@H](C)[C@@H]1OC(=O)CC(C)C,T/C,"dose: 0.12 mg/kg/injection, schedule: Q01DX009 (ip), vehicle: Klucel (hydroxypropylcellulose) (HPC)",105 % of control
same,T/C,"dose: 0.25 mg/kg/injection, schedule: Q01DX009 (ip), vehicle: Klucel (hydroxypropylcellulose) (HPC)",105 % of control
same,T/C,"dose: 0.5 mg/kg/injection, schedule: Q01DX009 (ip), vehicle: Klucel (hydroxypropylcellulose) (HPC)",109 % of control
same,T/C,"dose: 1.0 mg/kg/injection, schedule: Q01DX009 (ip), vehicle: Klucel (hydroxypropylcellulose) (HPC)",119 % of control
CN(C)c1ccc(/C=C\C(=O)c2ccc(C(=O)/C=C/c3ccc(N(C)C)cc3)cc2)cc1,T/C,[6],99 % of control
same,T/C,[7],96 % of control
same,T/C,[9],90 % of control
O=P(c1ccccc1)(N1CC1)N1CC1,T/C,"dose: 15.0 mg/kg/injection, schedule: Q04DX003 (ip), vehicle: saline",118 % of control
same,T/C,"dose: 30.0 mg/kg/injection, schedule: Q04DX003 (ip), vehicle: saline",122 % of control
COC(=O)C1CC(=O)N(C)c2sc(C)c(C)c2C1=O (configuration not stated),T/C,[7],103 % of control
same,T/C,[9],93 % of control
same,T/C,[10],94 % of control
same,T/C,"dose: 100.0 mg/kg/injection, schedule: Q04DX003 (ip), vehicle: saline with Tween-80",97 % of control
same,T/C,"dose: 200.0 mg/kg/injection, schedule: Q01DX009 (ip), vehicle: saline with Tween-80",94 % of control
same,T/C,"dose: 200.0 mg/kg/injection, schedule: Q04DX003 (ip), vehicle: saline with Tween-80",93 % of control
Cn1c(N)c(C(=O)c2cccs2)c(=O)n(C)c1=O,T/C,[4],96 % of control
same,T/C,[5],88 % of control
same,T/C,[8],96 % of control
Nc1nnc(Cc2ccc(Br)cc2)o1,T/C,[11],98 % of control
same,T/C,[12],97 % of control
same,T/C,[13],100 % of control
Cc1nc2c(o1)CCCC2,T/C,[11],95 % of control
same,T/C,[12],90 % of control
same,T/C,[13],99 % of control
CCOC(=O)C(C)(C)CN(CCCN(C)C)CC(C)(C)C(=O)OCC,T/C,[9],105 % of control
same,T/C,[10],115 % of control
CN=C(N)N/N=C(\C)c1ccc2c(c1)Cc1cc(Cl)ccc1-2,T/C,"dose: 12.5 mg/kg/injection, schedule: Q04DX002 (ip), vehicle: saline with Tween-80",112 % of control
same,T/C,"dose: 25.0 mg/kg/injection, schedule: Q04DX002 (ip), vehicle: saline with Tween-80",113 % of control and 118 % of control
same,T/C,"dose: 50.0 mg/kg/injection, schedule: Q04DX002 (ip), vehicle: saline with Tween-80",113 % of control and 118 % of control
same,T/C,"dose: 100.0 mg/kg/injection, schedule: Q04DX002 (ip), vehicle: saline with Tween-80",102 % of control
CCC1(O)CC2CN(CCc3c([nH]c4ccccc34)C(C(=O)OC)(c3cc4c(cc3OC)N(C)C3C(O)(C(=O)NCCO)C(O)C5(CC)C=CCN6CCC43C65)C2)C1 (configuration not stated),T/C,"dose: 0.13 mg/kg/injection, schedule: Q01DX009 (ip), vehicle: water",105 % of control
same,T/C,"dose: 0.2 mg/kg/injection, schedule: Q01DX009 (ip), vehicle: saline",150 % of control
same,T/C,"dose: 0.22 mg/kg/injection, schedule: Q01DX009 (ip), vehicle: water",117 % of control
same,T/C,"dose: 0.36 mg/kg/injection, schedule: Q01DX009 (ip), vehicle: water",122 % of control
same,T/C,"dose: 0.4 mg/kg/injection, schedule: Q01DX009 (ip), vehicle: saline",167 % of control
same,T/C,"dose: 0.6 mg/kg/injection, schedule: Q01DX009 (ip), vehicle: water",153 % of control
same,T/C,"dose: 0.63 mg/kg/injection, schedule: Q04DX003 (ip), vehicle: saline",183 % of control
same,T/C,"dose: 0.8 mg/kg/injection, schedule: Q01DX009 (ip), vehicle: saline",96 % of control
same,T/C,"dose: 1.0 mg/kg/injection, schedule: Q01DX009 (ip), vehicle: water",104 % of control
same,T/C,"dose: 1.25 mg/kg/injection, schedule: Q04DX003 (ip), vehicle: saline",223 % of control
same,T/C,"dose: 2.5 mg/kg/injection, schedule: Q04DX003 (ip), vehicle: saline",274 % of control
Clc1cc2c(cc1CO/N=C\c1ccc3c(c1)OCO3)OCO2,T/C,"dose: 50.0 mg/kg/injection, schedule: Q04DX003 (ip), vehicle: saline sonified",90 % of control
same,T/C,"dose: 100.0 mg/kg/injection, schedule: Q04DX003 (ip), vehicle: saline sonified",95 % of control
same,T/C,"dose: 200.0 mg/kg/injection, schedule: Q04DX003 (ip), vehicle: saline sonified",90 % of control
O=C1/C(=C/N2CCN(c3ccccc3)CC2)Cc2c(F)cccc21,T/C,"dose: 100.0 mg/kg/injection, schedule: Q04DX003 (ip), vehicle: Klucel (hydroxypropylcellulose) (HPC)",100 % of control
same,T/C,"dose: 200.0 mg/kg/injection, schedule: Q04DX003 (ip), vehicle: Klucel (hydroxypropylcellulose) (HPC)",97 % of control
same,T/C,"dose: 400.0 mg/kg/injection, schedule: Q04DX003 (ip), vehicle: Klucel (hydroxypropylcellulose) (HPC)",100 % of control
C/C(=N\NC(=S)N1CC(C)OC(C)C1)c1ncccn1 (configuration not stated),T/C,"dose: 7.5 mg/kg/injection, schedule: Q01DX005 (ip), vehicle: saline with Tween-80",104 % of control
same,T/C,"dose: 15.0 mg/kg/injection, schedule: Q01DX005 (ip), vehicle: saline with Tween-80",98 % of control
